Laboratory results from PubChem BioAssay (NCI).
“And” between values parts separate entries of the source, which are not always exact repeats. Identical values can stand only once.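 Briefly, cells in 96-well plates were exposed to five compound concentrations for 48 h, and endpoints were estimated by linear interpolation. Here, GI50 denotes the concentration required for 50% inhibition of growth. TGI denotes the concentration required for complete inhibition of growth.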

Columns and labels:
Test in all cases: NCI-60 cell line screen, 48 h
[1] = tested on: SK-MEL-28 melanoma
[2] = tested on: XF 498 CNS
[3] = tested on: HCT-15 colon
[4] = tested on: K-562 leukemia
[5] = tested on: M14 melanoma
[6] = tested on: CAKI-1 renal
[7] = tested on: HS 578T breast
[8] = tested on: MDA-N
[9] = tested on: MCF7 breast
[10] = tested on: DU-145 prostate
[11] = tested on: DMS 114 small cell lung

Row | Structure (SMILES) | TGI [1] | TGI [2] | TGI [3] | TGI [4] | TGI [5] | TGI [6] | GI50 [2] | TGI [7] | TGI [8] | TGI [9] | TGI [10] | TGI [11] | GI50 [7] | GI50 [4] | GI50 [10] | GI50 [5]
1 | CCN(CC)/[N+]([O-])=N/OC | > 100 µM | > 100 µM | > 100 µM | > 100 µM | > 100 µM | – | – | – | – | – | – | – | – | – | – | –
2 | COc1cccc(/C=N/[N-]C(N)=O)c1[O-].[Cu+2].[OH3+].c1cnc2c(c1)ccc1cccnc12 | 29.7 µM | 6.36 µM | > 100 µM | 39.3 µM | 28.8 µM | 33.9 µM | 2.3 µM | – | – | – | – | – | – | – | – | –
3 | CCOC(=O)C(Cc1ccc(OC(=O)c2ccc(OC)cc2OC)cc1)NC(=O)C(F)(F)F (stereo unspecified) | – | – | 43.3 µM | > 100 µM | 33.8 µM | 75.8 µM | – | 83.5 µM | 49.3 µM | 47.4 µM | 34.4 µM | – | – | – | – | –
4 | COC1OC(C(=O)CP(=O)(OC)OC)C(OCc2ccccc2)C(OCc2ccccc2)C1OCc1ccccc1 (stereo unspecified) | 40 µM and 33.2 µM | – | 33.4 µM and 36.1 µM | 63.1 µM and > 100 µM | 28.8 µM and 30.4 µM | 36 µM and 36.7 µM | – | 63.4 µM and 74.8 µM | 29.8 µM and 30.8 µM | 30.5 µM | 31.3 µM and 33.5 µM | – | – | – | – | –
5 | O=CC(O)C(O)C(O)COc1cc(CO)cc2c1C(=O)c1ccccc1C2=O (stereo unspecified) | > 100 µM | > 100 µM | > 100 µM | > 100 µM | > 100 µM | > 100 µM | – | – | – | – | – | > 100 µM | – | – | – | –
6 | C/C(=C\CNc1ncnc2nc(Cl)[nH]c12)CO | > 100 µM | – | – | > 100 µM | > 100 µM | > 100 µM | – | > 100 µM | > 100 µM | > 100 µM | > 100 µM | – | – | – | – | –
7 | CC(C)(C)OC(=O)N1C[C@H](CC(=O)OCc2ccccc2)C[C@H]1C(=O)OCC(Cl)(Cl)Cl | > 50 µM | – | > 50 µM | > 50 µM | > 50 µM | > 50 µM | – | > 50 µM | – | > 50 µM | > 50 µM | – | – | – | – | –
8 | C/C=C/C=C/C1=NN(c2cccc(S(=O)(=O)O)c2)C2(C1)C(Cl)C(=O)N2c1nc2ccccc2s1 (stereo unspecified) | 43.6 µM | – | 31.4 µM | > 62.1 µM | 29.4 µM | 20.9 µM | – | > 90.3 µM | 29 µM | 27 µM | 26.2 µM | – | – | – | – | –
9 | CCOC(=O)C(C)OC(=O)c1ccc(C)cc1 (stereo unspecified) | > 100 µM | > 100 µM | > 100 µM | > 100 µM | > 100 µM | – | – | – | – | – | – | > 100 µM | – | – | – | –
10 | O=c1oc2c(ccc3occc32)c(N2CCCCC2)c1-c1ccccc1 | > 100 µM | > 100 µM | > 100 µM | > 100 µM | – | – | – | – | – | > 100 µM | – | > 100 µM | – | – | – | –
11 | CCOC(=O)c1c(Nc2ccccc2)sc2cccnc12 | 63 µM | – | 58.3 µM | 82.8 µM | 26.4 µM | 98.4 µM | – | > 69.1 µM | 58.3 µM | 59.5 µM | > 69.7 µM | – | – | – | – | –
12 | Cc1cc(N2CCOCC2)nc(N(CCCNc2ccnc3cc(Cl)ccc23)Cc2ccc3c(c2)OCO3)n1 | – | – | – | 2.42 µM | 2.73 µM | – | – | 4.61 µM | – | – | 2.93 µM | – | 1.97 µM | 0.436 µM | 1.43 µM | 1.4 µM
13 | CC(C)c1ccc2c(c1)[C@@]1(C)CC[C@H](C)C(C)(C)C1CC2 (stereo partly specified) | 31.6 µM | – | 34 µM | > 100 µM | 34.8 µM | 50.6 µM | – | 47.4 µM | 56.3 µM | 32.1 µM | 59.4 µM | – | – | – | – | –
14 | CC1=NN(c2cccc(Cl)c2)C(=N/c2nc3ccccc3s2)/C1=C\C=C\c1ccccc1 | > 100 µM | – | > 100 µM | > 100 µM | > 100 µM | > 100 µM | – | 87.6 µM | > 100 µM | > 100 µM | > 100 µM | – | – | – | – | –
15 | NC(N)=NS(=O)(=O)c1ccc(Nc2c3ccccc3nc3c(C(=O)N4CCN(CCO)CC4)ccc(Cl)c23)cc1 | > 100 µM | > 100 µM | > 100 µM | > 100 µM | > 100 µM | > 100 µM | – | – | – | – | – | > 100 µM | – | – | – | –
16 | CCOC(=O)C(=CNC(Cc1c[nH]c2ccccc12)C(=O)OC)C(=O)OCC (stereo unspecified) | > 100 µM | > 100 µM | > 100 µM | > 100 µM | > 100 µM | > 100 µM | – | – | – | – | – | > 100 µM | – | – | – | –
17 | O=C(CSc1nc2ccc(Cl)cc2c(=O)n1-c1ccccc1)N=Nc1c(O)[nH]c2ccc(F)cc12 | 11.3 µM | – | 3.45 µM | 11.3 µM | 11 µM | 11.6 µM | – | > 27 µM | 7.53 µM | 4.64 µM | 4.85 µM | – | – | – | – | –
18 | COC(=N)C(C)C | > 100 µM | – | > 100 µM | > 100 µM | > 100 µM | > 100 µM | – | – | – | – | – | > 100 µM | – | – | – | –
19 | CC(C)=CCC/C(C)=C/CC/C(C)=C/[C@@H]1[C@@H](CO)[C@]1(C)CC/C=C(\C)CCC=C(C)C | > 100 µM | – | > 100 µM | > 100 µM | > 100 µM | > 100 µM | – | > 100 µM | – | – | > 100 µM | – | – | – | – | –
20 | CC(C)(C)c1ccc(O)c(Br)c1 | > 100 µM | – | > 100 µM | > 100 µM | > 100 µM | – | – | > 100 µM | > 100 µM | > 100 µM | > 100 µM | – | – | – | – | –
21 | COC(=O)c1c(O)ccc2c1c1c(n2Cc2ccccn2)C(=O)c2ccccc2C1 | > 100 µM | – | > 100 µM | > 100 µM | > 100 µM | > 100 µM | – | > 100 µM | > 100 µM | > 100 µM | > 100 µM | – | – | – | – | –
